One block for each compound: values may come before it.
How the values were obtained:
[1] = 1H NMR titration, binding of chloride; settings: n-Bu4N^+ salt, CD3CN/CDCl3 (1/9, v/v), room temperature
Procedure: ^1H NMR Titration methods. Titrations of 4c and 6c with anions as their tetra-n-butyl ammonium (TBA) salts were carried out by ^1H NMR (400 MHz on Bruker-400) at room temperature (298 K). 0.5 mL of receptor 4c (5.0 mM) or 6c (2.0 mM) were prepared in the rubber-cap NMR tubes. Aliquots of concentrated TBACl or TBAI solution (50 mM for the titration of 4c and 20 mM for the titration of 6c) containing the same amount of receptors were added into the receptor solution using 20 microliter pipette. An initial ^1H NMR spectrum was collected and additional spectra were obtained after each injection of TBACl or TBAI solution. All titration ^1H NMR spectra were stacked together and the chemical shifts of amide protons were then fitted to the proposed 1:1 binding model using BindFit v0.5 (http://app.supramolecular.org/bindfit/).
(§1) Anion binding with four amides, i.e., L1mer-L4mer, was studied in the mixed solvents of CD3CN/CDCl3 (1/9, v/v) by titrating an amide host with 0 to 5 equivalents of tetrabutylammonium (n-Bu4N^+) salt of the corresponding anion. The binding of chloride, bromide, iodide, and nitrate was examined with the four amides in CDCl3 containing 10% CD3CN. The titration data were collected by monitoring the changes in chemical shifts of the backbone amide protons and the inner aromatic protons with varying ratios of the anion guests. Job plots indicate that these linear oligoamides and their anion guests bind in a 1:1 stoichiometry.
(§2) The binding of anions by macrocycle 7c was examined in CH3CN/CHCl3 (6/4, v/v) and in DMSO by titrating with various equivalents of the salts of chloride, iodide. nitrate, and dihydrogen phosphate, with tetrabutylammonium (n-Bu4N^+) being the counterion ion. Following the changes in the chemical shifts of backbone amide protons and “inner” aromatic protons allowed the determination of binding constants.
^1H NMR titration methods. Titrations of c5a and c5b with anions as their tetra-n-butylammonium (TBA), tetra-ethylammonium (TEA) and tetra-methylammonium (TMA) salts were carried out by ^1H NMR (400 MHz) at 25° C. […]

[2] = 1H NMR titration, binding of nitrate; settings: n-Bu4N^+ salt, CD3CN/CDCl3 (1/9, v/v), room temperature
From the text: as §1, §2
^1H NMR titration methods. Titrations of c5a and c5b with anions as their tetra-n-butylammonium (TBA), tetra-ethylammonium (TEA) and tetra-methylammonium (TMA) salts were carried out by ^1H NMR (400 MHz) at 25° C. 0.4 mL of corresponding hosts solutions were prepared in the rubber-cap NMR tubes. Aliquots of concentrated guest solution containing hosts were added into the NMR tubes using 20 microliter pipette. An initial ^1H NMR spectrum was collected and additional spectra were obtained after each injection of guest solution. All titration ^1H NMR spectra were stacked together and the chemical shifts of the internal aromatic CH proton were then fitted to 1:1 binding model using BindFit v0.5 (http://app.supramolecular.org/bindfit/) to evaluate binding constants to anions.

Solubility = format: physicochemical
[3] = pH 8.3, in water; cited from earlier work

- Ka of chloride [1]: 39 M⁻¹
Compound: CCCCCCCCCC(=O)Nc1ccc(NC(=O)C(C)(C)COCCCCCCCC)c(C(=O)NCCCCCC)c1 [Compound L1mer]

- Ka of chloride [1]: over 1,000 M^−1
- Ka of nitrate [2]: ~10000 M⁻¹
Compound: CCCCCCCCCC(=O)Nc1ccc(NC(=O)C(C)(C)COCCCCCCCC)c(C(=O)Nc2ccc(NC(=O)C(C)(C)COCCCCCCCC)c(C(=O)Nc3ccc(NC(=O)C(C)(C)COCCCCCCCC)c(C(=O)Nc4ccc(NC(=O)C(C)(C)COCCCCCCCC)c(C(=O)NCCCCCC)c4)c3)c2)c1 [Compound L4mer]

Compound: COCCOCCOCCOCC(C)(C)C(=O)Nc1ccc2cc1C(=O)Nc1ccc(NC(=O)C(C)(C)COCCOCCOCCOC)c(c1)C(=O)Nc1ccc(NC(=O)C(C)(C)COCCOCCOCCOC)c(c1)C(=O)Nc1ccc(NC(=O)C(C)(C)COCCOCCOCCOC)c(c1)C(=O)Nc1ccc(NC(=O)C(C)(C)COCCOCCOCCOC)c(c1)C(=O)N2 [c5b]
- solubility in organic solvents (Solubility; variety of / many organic solvents): soluble
- solubility in water (Solubility; water): ~ 1 mM

Compound: SBP: sulfate-binding protein (SBP) from the gram-negative bacterium S. typhimurium
- Ka for the sulfate ion [3]: 8.3e+06 M⁻¹
